According to the NIST ThermoML archive (doi:10.1016/j.jct.2007.08.002):
Where “and” joins values, the source holds several entries; their conditions need not be identical. Identical values can stand only once. ± gives the expanded uncertainty stated by the source.

Tests used:
[1] = for vapor or sublimation pressure: Crystal 1; for Triple point temperature: Adiabatic calorimetry
[2] = Molar enthalpy of transition or fusion; conditions: Adiabatic calorimetry

NC12CC3CC(CC(C3)C1)C2 [tricyclo(3.3.1.1:3,7)decan-1-amine]
[1]
Conditions	vapor or sublimation pressure
291.05 K, Calculated from knudsen effusion weight loss	0.00621 ± 0.00087 kPa
291.07 K, Calculated from knudsen effusion weight loss	0.00627 ± 0.00088 kPa
291.2 K, Transpiration method	0.00632 ± 0.00032 kPa
293.54 K, Calculated from knudsen effusion weight loss	0.00757 ± 0.0011 kPa
293.55 K, Calculated from knudsen effusion weight loss	0.00752 ± 0.0011 kPa
294.2 K, Transpiration method	0.00832 ± 0.00042 kPa
297.1 K, Transpiration method	0.0107 ± 0.0005 kPa
300.1 K, Transpiration method	0.0137 ± 0.0007 kPa
303.2 K, Transpiration method	0.0186 ± 0.0009 kPa
305.6 K, Transpiration method	0.0223 ± 0.0011 kPa
305.94 K, Calculated from knudsen effusion weight loss	0.0211 ± 0.0035 kPa
305.98 K, Calculated from knudsen effusion weight loss	0.0204 ± 0.0034 kPa
308.1 K, Transpiration method	0.027 ± 0.0014 kPa
308.52 K, Calculated from knudsen effusion weight loss	0.0263 ± 0.0045 kPa
310.4 K, Transpiration method	0.0291 ± 0.0015 kPa
310.94 K, Calculated from knudsen effusion weight loss	0.0309 ± 0.0054 kPa and 0.0315 ± 0.0055 kPa
313.2 K, Transpiration method	0.0396 ± 0.002 kPa
318 K, Transpiration method	0.0535 ± 0.0027 kPa
318.3 K, Transpiration method	0.0549 ± 0.0027 kPa
323.3 K, Transpiration method	0.0777 ± 0.0039 kPa
328.1 K, Transpiration method	0.108 ± 0.005 kPa
333.4 K, Transpiration method	0.148 ± 0.007 kPa and 0.153 ± 0.008 kPa
338.3 K, Transpiration method	0.2 ± 0.01 kPa
338.5 K, Transpiration method	0.205 ± 0.01 kPa
343.4 K, Transpiration method	0.269 ± 0.014 kPa
343.6 K, Transpiration method	0.286 ± 0.014 kPa

Conditions	mass density [kg/m3]
[1], 298.15 K, 101.33 kPa, Crystal 3, Pycnometric method	1100 ± 100

Conditions	Molar enthalpy of transition or fusion, [2] [kcal/mol]	Triple point temperature, [1] [K]
Crystal 2	1.269 ± 0.00287	284.6 ± 0.1
Crystal 3	0.41 ± 0.00574	241.4 ± 0.1
